“And” between values parts separate entries of the source, which are not always exact repeats. Equal entries are not always repeated.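 Test compounds were applied to cells in 96-well plates for 48 hours at 5 doses. At the GI50, growth is halved. At the TGI there is no net growth.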 Where a SMILES comes first, the peptide text is derived from it. The star is where a group is joined. Boc = CC(C)(C)OC(=O)*; Bn = c1ccc(C*)cc1
Assays:
Assay in all cases: DTP human tumour cell line panel, 48 h
CAKI-1 renal = tested on: CAKI-1 renal
SNB-19 CNS = tested on: SNB-19 CNS
HL-60(TB) leukemia = tested on: HL-60(TB) leukemia
U251 CNS = tested on: U251 CNS

Row | SMILES | TGI (CAKI-1 renal) | TGI (SNB-19 CNS) | TGI (HL-60(TB) leukemia) | TGI (U251 CNS) | GI50 (CAKI-1 renal) | GI50 (HL-60(TB) leukemia) | GI50 (U251 CNS)
1 | O=C1O/C(=C(/Cl)c2c3ccccc3cc3ccccc23)c2ccccc21 | > 100 µM | > 100 µM | 22.6 µM | > 100 µM | – | – | –
2 | CN(C)c1cccc(/C=C(\C#N)c2ccccc2)c1 | > 100 µM | > 53.8 µM | 1.34 µM | 27.1 µM | – | – | –
3 | CCN(CC)c1ccc2cc(-c3csc(C)n3)c(=O)oc2c1 | > 100 µM | > 100 µM | > 100 µM | > 100 µM | – | – | –
4 | C=C1C(=O)OC2/C=C(\C)CC/C=C(\C)CC(OC(=O)/C(=C/CO)CO)[C@@H]12 (some centres not stated) | 14.1 µM | > 85.7 µM | 12.6 µM | 4.71 µM | – | – | –
5 | CC(C)(C)CN1[C@@H]2CCCC[C@H]2N(CC(C)(C)C)P1(=O)C(O)/C=C/c1ccccc1 (some centres not stated) | > 100 µM | > 100 µM | 81.1 µM | > 100 µM | – | – | –
6 | O=C(c1ccc(Cl)c(Cl)c1)N(C(=O)N1CCN(c2ccccc2)CC1)S(=O)(=O)c1ccccc1 | > 100 µM | > 100 µM | > 100 µM | 62.9 µM | – | – | –
7 | CC[C@H]1C=CCC[C@@]2(C[C@@H]3CC[C@H]4[C@@H](C(=O)OCCCCCCCCCCCCCCCC(=O)N(CCCNC(C)=O)C[C@H](CCNC(C)=O)OC(C)=O)[C@@]5(CCC[C@@H](C)O5)NC(=[N+]34)N2)O1 | 5.08 µM | 3.07 µM | 2.91 µM | 2.11 µM | – | – | –
8 | CC1=NN(C(=O)CC(=O)Nc2ccc(Cl)cc2)C(=O)C1N=Nc1ccc(S(=O)(=O)c2ccc(N=NC3C(=O)N(C(=O)CC(=O)Nc4ccc(Cl)cc4)N=C3C)cc2)cc1 (configuration not stated) | > 100 µM | > 100 µM | > 100 µM | 59.6 µM | – | – | –
9 | O=S1(=O)c2ccccc2-c2nccc3ccnc1c23 | 85.9 µM | 91.3 µM | > 100 µM | > 100 µM | – | – | –
10 | CC(=O)[C@]12OC(=O)C3=C1[C@H](CC[C@@H]3C)[C@@H](C)C[C@H]2C=C(C)C | 13 µM | 16.4 µM | 16 µM | 14.9 µM | – | – | –
11 | Cc1ccccc1C1CC(=O)CC(c2ccccc2C)C12C(=O)NC(=S)NC2=O (configuration not stated) | > 100 µM | > 100 µM | 59.2 µM | > 100 µM | – | – | –
12 | COC1=CC(=O)c2c(n[nH]c2CCNC(=O)OCc2ccccc2)C1=O | – | 39.8 µM | 41.9 µM | 26 µM | – | – | –
13 | CC(C)(C)OC(=O)NC(Cc1ccc(OCc2ccccc2)cn1)C(=O)O (configuration not stated) | > 100 µM | > 100 µM | > 100 µM | > 100 µM | – | – | –
14 | CC(C)(C)OC(=O)NCC(=O)N(CCc1ccc(Cl)c(Cl)c1)CCN1CCCC1 | 36 µM | 34.4 µM | 30.4 µM | 28.7 µM | – | – | –
15 | COc1ccc2cc(/C=N\NC(=O)Nc3ccc([N+](=O)[O-])cc3)ccc2c1 | 18.5 µM | 20.1 µM | 30.7 µM | 26.6 µM | – | – | –
16 | Cn1nc(S(N)(=O)=O)s/c1=N/S(=O)(=O)c1ccc(N)cc1 | > 100 µM | > 100 µM | – | > 100 µM | – | – | –
17 | Cc1ccc(/C=C2\CCCCCC2=O)cc1 | > 100 µM | > 100 µM | > 100 µM | > 100 µM | – | – | –
18 | CN1C(=O)C(C#N)C2C[C@@]1(C)Oc1ccccc12 (some centres not stated) | > 100 µM | > 100 µM | > 100 µM | > 100 µM | – | – | –

Row | SMILES | TGI (CAKI-1 renal) | TGI (SNB-19 CNS) | TGI (HL-60(TB) leukemia) | TGI (U251 CNS) | GI50 (CAKI-1 renal) | GI50 (HL-60(TB) leukemia) | GI50 (U251 CNS)
19 | CC(=O)c1sc2n(C)c(=O)c3ccccc3[n+]2c1C | > 100 µM | > 100 µM | > 100 µM | > 100 µM | – | – | –
20 | CCOC(=O)CNC(=O)CNC(=O)CNC(=O)CNNc1c(OCc2ccccc2)c(=O)c1=O | > 100 µM | > 100 µM | – | > 100 µM | – | – | –
21 | CC(CC(C)[C@H]1CCC2[C@H]3C(CC(=O)[C@@]21C)[C@@]1(C)CCC(O)C[C@H]1C[C@@H]3O)C(=O)O (some centres not stated) | > 100 µM | > 100 µM | > 100 µM | > 100 µM | – | – | –
22 | COC(=O)C(CC(C)C)NC(=O)CNC(=O)C(Cc1ccc(OCc2ccccc2)cc1)NC(=O)C(COCc1ccccc1)NC(=O)OC(C)(C)C (configuration not stated) (Boc-S(Bn)Y(Bn)GL-OMe; configuration not given here) | > 100 µM | > 100 µM | 39.7 µM | > 100 µM | – | – | –
23 | COc1cc(/C=C2\CC(C)C/C(=C\c3ccc(O)c(OC)c3)C2=O)ccc1O (configuration not stated) | – | 22.3 µM | > 30.6 µM | 5.59 µM | – | – | –
24 | C=CC[C@@]12CCC(=O)C=C1CCCC2=O | > 100 µM | > 100 µM | > 100 µM | > 100 µM | – | – | –
25 | Cc1cc(C)nc(NS(=O)(=O)c2ccc(Nc3nnc(/C=C/c4c(O)ccc5ccccc45)c(=O)n3N)cc2)n1 | 59.8 µM | > 100 µM | 66.8 µM | – | – | – | –
26 | COC(=O)/C=C1/OC(c2ccc(C)cc2C)=CC1=O | 34.5 µM | – | > 100 µM | 31.1 µM | – | – | –
27 | Brc1ccc(N=Nc2ccc3ccccc3n2)cc1 | 47 µM | 37.1 µM | > 100 µM | 36.2 µM | – | – | –
28 | C=CCN1C(=O)/C(=C/c2ccc(OC)cc2)N=C1SC1OC(COC(C)=O)C(OC(C)=O)C(OC(C)=O)C1OC(C)=O (configuration not stated) | 33 µM and > 100 µM | > 100 µM | > 94 µM and 15.4 µM | 58.8 µM and > 100 µM | 16 µM and > 100 µM | 11.5 µM and 2.9 µM | 14.8 µM and 99.1 µM
29 | COc1ccc(OC2OC(CO)C(O)C(O)C2O)cc1 (configuration not stated) | > 100 µM | > 100 µM | > 100 µM | > 100 µM | – | – | –
30 | CC1CN=C(NS(=O)(=O)c2cc(C(=O)Nc3ccccc3)c(Cl)cc2S)NN1 (configuration not stated) | > 100 µM | > 100 µM | > 100 µM | > 100 µM | – | – | –
31 | O=C(/C=C/c1ccccc1Br)c1ccccc1 | 8.37 µM | 23.2 µM | 3.07 µM | 2.9 µM | – | – | –
32 | CCOC(=O)C(C)c1nc2cc(C(F)(F)F)ccc2[nH]c1=O (configuration not stated) | > 100 µM | > 100 µM | > 100 µM | > 100 µM | – | – | –
33 | Nc1ncc(N)c(NCC2(CO)CC(CCc3ccccc3)C2)n1 (configuration not stated) | 21.8 µM | 23.4 µM | 0.987 µM | 19.6 µM | – | – | –
34 | CC(C(=O)O)C1Nc2ccccc2NC1=O (configuration not stated) | > 100 µM | > 100 µM | > 100 µM | > 100 µM | – | – | –
35 | C=C(C)CCN(C(=O)OC(C)(C)C)c1cc(C(C)C)co1 | > 100 µM | > 100 µM | 43.8 µM | > 100 µM | – | – | –

From PubChem BioAssay (NCI)
